The assay deals with T1, UmChlE (Mycosarcoma maydis, UniProt A0A060S684, P492L).
T1 construct: purification of the chlorogenic acid esterase UmChlE from culture supernatant of U. maydis was accomplished by three complementary separation steps; made in house; host or cells: Ustilago maydis itself (native producer), culture supernatant; Q Sepharose FF, preparative IEF, polyamide column
In words: Kinetic parameters of UmChlE from initial hydrolysis rates. The following applies: 0.005 - 1 mM substrate, 60 min, 37 °C, pH 7.5. The class given is biochemical, Ustilago maydis. The method, then:
Km and vmax values were calculated with non-linear regression using SigmaPlot 10.0 (Systat Software Inc., Chicago, USA). Blanks were carried out for all assays using water instead of enzyme. For calculation of kcat the molecular mass was determined using denaturing SDS-PAGE.
Kinetic properties were determined from initial hydrolysis rates for the most preferred substrates chlorogenic acid, MFA and MpCA. […] Consequently, the catalytic efficiency (kca/Km), a good indicator for enzyme efficiency and specificity, was better for chlorogenic acid than for the two synthetic substrates.

“And” between values parts separate entries of the source, which are not always exact repeats. Identical values can stand only once.

Take `COC(=O)/C=C/c1ccc(O)cc1` [methyl p-coumarate]: the Km (commonly the concentration of substrate that gives half-maximal velocity) (listed as MpCA) is 64.1 µM and 64 µM. Turning to `COC(=O)/C=C/c1ccc(O)c(OC)c1` [methyl ferulate], the Km worked out at 102 µM. Take `O=C(/C=C/c1ccc(O)c(O)c1)O[C@@H]1C[C@](O)(C(=O)O)C[C@@H](O)[C@H]1O` [chlorogenic acid]: the Michaelis-Menten constant (Km) worked out at 19.6 µM.

Values taken from EP3539977B1, “ENZYMES WITH CHLOROGENIC ACID ESTERASE ACTIVITY AND FERULOYL ESTERASE ACTIVITY” (SternEnzym GmbH & Co. KG, priority 2014, dated 2016).
